# Read-outs that look alike come from different tables or passages of the source.
# How the values were obtained:
# [1] = biological target: α4β1 integrin (Homo sapiens (Human), UniProt P05556+P13612); assay: Integrin Adhesion Assay: Protocol 5 (VCAM-coated plate, RPMI-8866 cells with stable LOF mutation of the ITGB7 gene); assay type: cell-based
# Summary of the method: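 RPMI-8866 B cells with CRISPR/Cas9 ITGB7 knockout (clonal, verified by flow cytometry) adhered to VCAM-coated wells for 1 h at 37° C in HEPES/NaCl buffer with 1 mM MnCl2, 0.1 mM CaCl2, 1% BSA, 1% DMSO. Bound cells quantified by CellTiter-Glo luminescence after washing; % inhibition versus DMSO and control, 4-parameter fit.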
# [2] = biological target: α4β7 integrin (Homo sapiens (Human), UniProt P13612+P26010); assay: Integrin Adhesion Assay: Protocol 4 (MAdCAM-coated plate, RPMI-8866 cells with stable LOF mutation of the ITGB1 gene); assay type: cell-based
# Summary of the method: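 RPMI-8866 cells with CRISPR/Cas9 knockout of ITGB1 (2×10^6/mL) were added to MAdCAM-coated wells with compound (1% DMSO) in HEPES/NaCl buffer with 1 mM MnCl2, 0.1 mM CaCl2 and 1% BSA, then incubated 1 h at 37 °C. After four washes, adherent cells were quantified by CellTiter-Glo luminescence. Percent inhibition versus DMSO and control compound was fitted to 4-parameter curves.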
# [3] = RPMI-8866 cells with stable LOF mutation of the ITGB7 gene, read-out: Mean IC50 α4β1 KO^b
# [4] = RPMI-8866 cells with stable LOF mutation of the ITGB1 gene, read-out: Mean IC50 α4β7 KO^a
# [5] = Protocol 5, RPMI-8866 cells with LOF mutation of ITGB7, VCAM, read-out: Mean IC50 α4β1 KO
# [6] = Protocol 4, RPMI-8866 cells with LOF mutation of ITGB1, MAdCAM, read-out: Mean IC50 α4β7 KO
# α4β7 integrin, sequence (P13612 34-1032): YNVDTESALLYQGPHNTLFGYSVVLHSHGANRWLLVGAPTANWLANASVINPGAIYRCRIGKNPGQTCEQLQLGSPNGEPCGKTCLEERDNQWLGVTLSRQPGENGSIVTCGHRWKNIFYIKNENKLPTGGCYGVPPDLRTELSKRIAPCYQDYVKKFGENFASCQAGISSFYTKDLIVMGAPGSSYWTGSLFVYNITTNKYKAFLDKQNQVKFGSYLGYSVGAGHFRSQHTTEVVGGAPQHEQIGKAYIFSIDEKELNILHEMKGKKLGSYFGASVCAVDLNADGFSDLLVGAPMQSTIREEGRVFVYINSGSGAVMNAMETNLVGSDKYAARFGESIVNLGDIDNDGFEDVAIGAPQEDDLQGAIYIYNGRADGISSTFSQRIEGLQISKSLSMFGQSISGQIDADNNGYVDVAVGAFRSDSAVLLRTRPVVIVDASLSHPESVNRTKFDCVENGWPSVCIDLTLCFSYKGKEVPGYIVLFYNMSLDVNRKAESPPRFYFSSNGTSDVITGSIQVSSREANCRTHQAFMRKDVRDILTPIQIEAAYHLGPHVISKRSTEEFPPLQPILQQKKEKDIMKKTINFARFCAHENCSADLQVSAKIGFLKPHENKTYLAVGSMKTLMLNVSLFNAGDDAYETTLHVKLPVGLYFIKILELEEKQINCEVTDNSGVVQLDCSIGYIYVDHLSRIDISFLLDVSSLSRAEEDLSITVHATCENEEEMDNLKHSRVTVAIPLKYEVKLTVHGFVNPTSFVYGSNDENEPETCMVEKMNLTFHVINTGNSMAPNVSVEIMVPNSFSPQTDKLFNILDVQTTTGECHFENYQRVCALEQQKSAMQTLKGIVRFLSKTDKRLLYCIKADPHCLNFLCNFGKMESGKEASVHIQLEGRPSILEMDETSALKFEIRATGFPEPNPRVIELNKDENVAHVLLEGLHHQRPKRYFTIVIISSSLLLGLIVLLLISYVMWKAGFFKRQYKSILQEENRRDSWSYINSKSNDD
# α4β7 integrin, sequence (P26010 20-798): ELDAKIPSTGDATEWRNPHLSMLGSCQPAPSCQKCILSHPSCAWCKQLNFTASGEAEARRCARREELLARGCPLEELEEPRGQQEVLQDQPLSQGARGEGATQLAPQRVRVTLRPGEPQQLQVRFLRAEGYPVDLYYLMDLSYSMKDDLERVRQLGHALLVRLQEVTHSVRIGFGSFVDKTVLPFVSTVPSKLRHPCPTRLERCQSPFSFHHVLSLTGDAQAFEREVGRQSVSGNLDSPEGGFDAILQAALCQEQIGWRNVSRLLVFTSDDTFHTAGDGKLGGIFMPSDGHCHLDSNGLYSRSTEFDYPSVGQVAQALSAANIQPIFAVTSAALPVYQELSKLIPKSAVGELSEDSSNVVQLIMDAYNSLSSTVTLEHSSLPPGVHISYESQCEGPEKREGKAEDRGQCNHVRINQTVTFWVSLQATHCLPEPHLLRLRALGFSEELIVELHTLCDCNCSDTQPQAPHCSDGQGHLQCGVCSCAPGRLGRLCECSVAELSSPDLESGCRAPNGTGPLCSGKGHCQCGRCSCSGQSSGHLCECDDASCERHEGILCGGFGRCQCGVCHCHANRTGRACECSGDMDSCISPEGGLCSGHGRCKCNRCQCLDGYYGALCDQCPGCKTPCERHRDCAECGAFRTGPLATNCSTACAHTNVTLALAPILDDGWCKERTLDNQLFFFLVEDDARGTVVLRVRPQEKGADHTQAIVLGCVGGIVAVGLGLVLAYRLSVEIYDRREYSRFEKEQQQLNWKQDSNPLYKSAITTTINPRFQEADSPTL
# α4β1 integrin, sequence (P13612 34-1032): as the sequence (P13612 34-1032) above
# α4β1 integrin, sequence (P05556 21-798): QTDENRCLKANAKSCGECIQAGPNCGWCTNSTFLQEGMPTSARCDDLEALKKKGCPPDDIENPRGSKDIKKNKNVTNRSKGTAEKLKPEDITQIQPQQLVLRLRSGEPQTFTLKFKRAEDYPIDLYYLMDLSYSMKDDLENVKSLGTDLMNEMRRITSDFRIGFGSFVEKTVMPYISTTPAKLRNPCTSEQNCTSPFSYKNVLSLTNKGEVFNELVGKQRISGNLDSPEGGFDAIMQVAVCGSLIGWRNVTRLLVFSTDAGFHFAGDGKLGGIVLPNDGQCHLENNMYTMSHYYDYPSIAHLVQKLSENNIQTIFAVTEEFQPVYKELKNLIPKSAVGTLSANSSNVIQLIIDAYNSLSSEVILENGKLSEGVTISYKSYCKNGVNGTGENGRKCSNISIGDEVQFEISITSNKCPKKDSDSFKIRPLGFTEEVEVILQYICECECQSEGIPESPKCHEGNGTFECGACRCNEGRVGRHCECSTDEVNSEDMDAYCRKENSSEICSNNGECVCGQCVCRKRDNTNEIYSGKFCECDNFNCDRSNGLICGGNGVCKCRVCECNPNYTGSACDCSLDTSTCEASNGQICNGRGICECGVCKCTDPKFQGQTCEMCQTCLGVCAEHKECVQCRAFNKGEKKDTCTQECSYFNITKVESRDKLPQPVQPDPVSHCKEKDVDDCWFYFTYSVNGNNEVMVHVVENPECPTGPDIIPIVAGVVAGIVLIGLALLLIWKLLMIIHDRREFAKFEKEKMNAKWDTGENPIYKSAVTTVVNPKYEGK
"IC50 [1, 3]","IC50 [2, 4]","IC50 [1, 5]","IC50 [2, 6]",SMILES
> 1000 nM,< 10 nM,–,–,O=C(O)[C@H](Cc1cccc2c(-c3nccc4ccc(CCCN5CCC(F)(F)CC5)cc34)cccc12)NC(=O)C1(C(F)(F)F)CCN(CC(F)(F)F)CC1 [Compound 539]
> 1000 nM,10 to 100 nM,–,–,O=C(O)[C@H](Cc1cccc2c(-c3ncc(CN4CCCCC4)c4ccccc34)cccc12)NC(=O)C1(C(F)(F)F)CCNCC1 [Compound 550]
> 1000 nM,100 to 1000 nM,–,–,Cn1c(=O)c(-c2cccc3c(C[C@H](NC(=O)C4(C(F)(F)F)CCN(C(C)(C)C(F)(F)F)CC4)C(=O)O)cccc23)c(C(F)(F)F)c2ccccc21 [Compound 489]
–,–,> 1000 nM,< 10 nM,O=C(O)[C@H](Cc1cccc2c(-c3nccc4cccc(CCN5CCCCC5)c34)cccc12)NC(=O)C1(C(F)(F)F)CCN(CC(F)(F)F)CC1 [Compound 982]
> 1000 nM,10 to 100 nM,–,–,O=C(O)[C@H](Cc1cccc2c(-c3nccc4c(CN5CCC6(CCCCC6)CC5)cccc34)cccc12)NC(=O)C1(C(F)(F)F)CCN(CC(F)(F)F)CC1 [Compound 661]
> 1000 nM,10 to 100 nM,–,–,Cn1c(=O)c(-c2cccc3c(C[C@H](NC(=O)c4c(F)cccc4CN4CCC(C)(C)C4)C(=O)O)cccc23)c(C(F)(F)F)c2ccccc21 [Compound 487]
–,–,100 to 1000 nM,< 10 nM,Cc1cccc(F)c1C(=O)N[C@@H](Cc1cccc2c(-c3c(C(F)(F)F)c4cc(CCCN(C)C)ccc4n(C)c3=O)cccc12)C(=O)O [Compound 1053]
> 1000 nM,< 10 nM,–,–,COc1ccc(CN2CC(F)C2)c(OC)c1-c1cccc2c(C[C@H](NC(=O)c3c(C)cccc3F)C(=O)O)cccc12 [Compound 590]
–,–,100 to 1000 nM,10 to 100 nM,CC1CCN(Cc2ccc3c(c2)c(C(F)(F)F)c(-c2cccc4c(C[C@H](NC(=O)C5(C(F)(F)F)CCN(CC(F)(F)F)CC5)C(=O)O)cccc24)c(=O)n3C)CCC1(F)F (some centres unmarked) [Compound 839]
–,–,> 1000 nM,< 10 nM,O=C(O)[C@H](Cc1cccc2c(-c3ncc(CN4CCC[C@@H](F)C4)cc3C3CC3)cccc12)NC(=O)C1(C(F)(F)F)CCN(CC(F)(F)F)CC1 [Compound 949]
–,–,> 1000 nM,10 to 100 nM,O=C(O)[C@H](Cc1cccc2c(-c3ncc(CN4CCC(C(F)(F)F)CC4)c4ccccc34)cccc12)NC(=O)C1(C(F)(F)F)CCN(CC(F)(F)F)CC1 [Compound 874]
–,–,> 1000 nM,< 10 nM,O=C(O)[C@H](Cc1cccc2c(-c3ncc(CN4CCCCC4)c4ccccc34)cccc12)NC(=O)C1(C(F)(F)F)CCN(CC(F)(F)F)CC1 [Compound 787]
100 to 1000 nM,< 10 nM,–,–,COc1ccc(CN2CCCCC2)c(OC)c1-c1cccc2c(C[C@H](NC(=O)c3c(F)cccc3Br)C(=O)O)cccc12 [Compound 665]
–,–,> 1000 nM,10 to 100 nM,Cc1cc(C(F)(F)F)cc(F)c1C(=O)N[C@@H](Cc1cccc2c(-c3c(C(F)(F)F)c4cc(CN(C)C)ccc4n(C)c3=O)cccc12)C(=O)O [Compound 700]
100 to 1000 nM,10 to 100 nM,–,–,Cn1c(=O)c(-c2cccc3c(C[C@H](NC(=O)C4(C(F)(F)F)CCN(C5CCOC5(C)C)CC4)C(=O)O)cccc23)c(C(F)(F)F)c2ccccc21 (some centres unmarked) [Compound 508]
> 1000 nM,10 to 100 nM,–,–,O=C(O)[C@H](Cc1cccc2c(-c3nccc4c(CN5CCC(F)(F)C5)cccc34)cccc12)NC(=O)C1(C(F)(F)F)CCN(CC(F)(F)F)CC1 [Compound 594]
–,–,> 1000 nM,10 to 100 nM,COc1cccc(CCN2CCC[C@H](F)C2)c1-c1cccc2c(C[C@H](NC(=O)C3(C(F)(F)F)CCN(CC(F)(F)F)CC3)C(=O)O)cccc12 [Compound 964]
–,–,100 to 1000 nM,< 10 nM,COC(=O)[C@H](Cc1cccc2c(-c3ncc(CN(C)C)c4ccccc34)cccc12)NC(=O)C1(C(F)(F)F)CCN(CC(F)F)CC1 [Compound 778]
> 1000 nM,100 to 1000 nM,–,–,Cn1c(=O)c(-c2cccc3c(C[C@H](NC(=O)C4(C(F)(F)F)CCN(C5COC(C(F)(F)F)C5)CC4)C(=O)O)cccc23)c(C(F)(F)F)c2ccccc21 (some centres unmarked) [Compound 507]

# From patent US20250313535A1, “ALPHA 4 BETA 7 INTEGRIN MODULATORS AND USES THEREOF” (DICE MOLECULES SV, INC., priority 2022, published 2025)
